Data taken from ChEMBL document CHEMBL1128166, “Synthesis and antiviral activity of rigid acyclonucleotide analogs” (Bioorg Med Chem Lett, 1995).

Experiments:
[1] = system: Vero; assay: The lowest concentration of compound producing overt cytotoxicity in virus-free vero cell cultures; format: functional; conditions: Chlorocebus sabaeus
[2] = system: Vero; assay: Anti-herpes virus activity was evaluated against Herpes simplex virus type 1 (HSV-1,strain HF) grown in Vero cells; format: functional, cell-based; conditions: Chlorocebus sabaeus
[3] = system: MRC5; assay: The lowest concentration of compound producing overt cytotoxicity in virus-free MRC-5 cell cultures; format: functional; conditions: Homo sapiens
[4] = system: Vero; assay: Anti-herpes virus activity was evaluated against Herpes simplex virus type 2 (HSV-2,strain G) grown in Vero cells; format: functional, cell-based; conditions: Chlorocebus sabaeus
[5] = system: MT4; assay: Concentration required to inhibit HIV-1-induced cytopathic effect by 50% in MT-4 cells; format: functional, cell-based; conditions: Homo sapiens
[6] = system: MRC5; assay: Anti-herpes virus activity was evaluated against human cytomegalovirus (HCMV, strain AD-169) grown in MRC-5 cells; format: functional, cell-based
[7] = system: C8166; assay: Concentration required to inhibit p24 viral antigen production by 50% in C-8166 cells; format: functional, cell-based; conditions: Homo sapiens
[8] = system: MT4; assay: Cytotoxic concentration required to reduce the viability of MT-4 cells; format: functional; conditions: Homo sapiens
[9] = system: Guanylate kinase (Sus scrofa); assay: Percent efficiency phosphorylated by guanylate kinase taken from hog brain
[10] = substrate: C=C(COCP(=O)(O)O)Cn1cnc2c(O)nc(N)nc21; assay: Vmax for guanylate kinase was determined; conditions: Sus scrofa
[11] = substrate: C=C(COCP(=O)(O)O)Cn1cnc2c(O)nc(N)nc21; assay: (§1) Michaelis-Menten constant (Km) for guanylate kinase was determined; conditions: Sus scrofa
[12] = substrate: Nc1nc2c(ncn2[C@@H]2O[C@H](COP(=O)(O)O)[C@@H](O)[C@H]2O)c(=O)[nH]1; assay: as §1

In the case of `Nc1ncnc2c1ncn2CC#CCOCP(=O)(O)O`, the CC50 [1] is reported as ≥ 250 µM, the EC50 [2] is reported as > 250 µM and the CC50 [3] is reported as > 250 µM. For the same molecule, the EC50 [4] was > 250 µM, the EC50 [5] was > 100 µM and the EC50 [6] was > 250 µM. The EC50 [7] was > 100 µM and the CC50 [8] was 800 µM.

For `Cc1cn([C@H]2C[C@H](N=[N+]=[N-])[C@@H](CO)O2)c(=O)[nH]c1=O` [ZIDOVUDINE], the EC50 [5] was 0.035 µM, the EC50 [7] was 0.03 µM and the CC50 [8] was 113 µM.

`Nc1ccn(C/C=C\COCP(=O)(O)O)c(=O)n1` was tested, and the CC50 [1] was > 250 µM, the EC50 [2] was > 250 µM and the CC50 [3] was > 250 µM. The EC50 [4] was > 250 µM, the EC50 [5] was > 100 µM and the EC50 [6] was > 250 µM. For the same molecule, the EC50 [7] was > 100 µM and the CC50 [8] was > 100 µM.

For `Nc1ccn(CC#CCOCP(=O)(O)O)c(=O)n1`, the CC50 [1] was > 250 µM, the EC50 [2] was > 250 µM and the CC50 [3] was > 250 µM. For the same molecule, the EC50 [4] was > 250 µM, the EC50 [5] was > 100 µM and the EC50 [6] was > 250 µM. For the same molecule, the EC50 [7] was > 100 µM and the CC50 [8] was > 100 µM.

In the case of `Nc1nc2c(ncn2COCCO)c(=O)[nH]1` [ACYCLOVIR], the CC50 [1] is reported as > 100 µM, the EC50 [2] is reported as 6 µM and the CC50 [3] is reported as ≥ 100 µM. For the same molecule, the EC50 [4] was 3 µM and the EC50 [6] was 18 µM.

With `Nc1ncnc2c1ncn2C/C=C\COCP(=O)(O)O` the CC50 [1] was ≥ 250 µM, the EC50 [2] was > 250 µM and the CC50 [3] was > 250 µM. The EC50 [4] was > 250 µM, the EC50 [5] was 170 µM and the EC50 [6] was > 250 µM. The EC50 [7] was 38 µM and the CC50 [8] was > 1000 µM.

With `C=C(COCP(=O)(O)O)Cn1cnc2c(O)nc(N)nc21` the CC50 [1] was > 250 µM, the EC50 [2] was > 250 µM and the CC50 [3] was > 250 µM. For the same molecule, the EC50 [4] was > 250 µM, the EC50 [5] was 25 µM and the EC50 [6] was 34 µM. It also gave an EC50 [7] of 1.9 µM, a CC50 [8] of 1800 µM and an Efficacy [9] of 0.6%.

In the case of `Nc1nc(O)c2ncn(C/C=C\COCP(=O)(O)O)c2n1`, the CC50 [1] is reported as > 250 µM, the EC50 [2] is reported as 37 µM and the CC50 [3] is reported as > 250 µM. For the same molecule, the EC50 [4] was > 250 µM, the EC50 [5] was > 100 µM and the EC50 [6] was > 250 µM. For the same molecule, the EC50 [7] was > 100 µM and the CC50 [8] was > 1000 µM.

With `C=C(COCP(=O)(O)O)Cn1ccc(N)nc1=O` the CC50 [1] was > 250 µM, the EC50 [2] was > 250 µM and the CC50 [3] was > 250 µM. For the same molecule, the EC50 [4] was > 250 µM, the EC50 [5] was > 100 µM and the EC50 [6] was > 250 µM. For the same molecule, the EC50 [7] was > 100 µM and the CC50 [8] was > 100 µM.

For `Nc1ncnc2c1ncn2CCOCP(=O)(O)O` [ADEFOVIR], the CC50 [1] was ≥ 250 µM, the EC50 [2] was 58 µM and the CC50 [3] was > 250 µM. For the same molecule, the EC50 [4] was 69 µM, the EC50 [5] was 22 µM and the EC50 [6] was 36 µM. The EC50 [7] was 1.7 µM and the CC50 [8] was 187 µM.

`C=C(COCP(=O)(O)O)Cn1cnc2c(N)ncnc21` was tested, and the CC50 [1] was > 250 µM, the EC50 [2] was 36 µM and the CC50 [3] was > 250 µM. For the same molecule, the EC50 [4] was > 250 µM, the EC50 [5] was > 100 µM and the EC50 [6] was > 250 µM. For the same molecule, the EC50 [7] was > 100 µM and the CC50 [8] was > 1000 µM.

B1: Guanylate kinase (Homo sapiens), Q16774 (protein)
chain: MSGPRPVVLSGPSGAGKSTLLKRLLQEHSGIFGFSVSHTTRNPRPGEENGKDYYFVTREVMQRDIAAGDFIEHAEFSGNLYGTSKVAVQAVQAMNRICVLDVDLQGVRNIKATDLRPIYISVQPPSLHVLEQRLRQRNTETEESLVKRLAAAQADMESSKEPGLFDVVIINDSLDQAYAELKEALSEEIKKAQRTGA
Molecule B1 has a Vmax [10] of 8%, a Km [11] of 238 µM and a Km [12] of 18 µM.
